Test system: Phytophthora citrophthora
Experiment: Example B3: action on phytopathogenic soil fungi, growth on agar in Petri dishes
Assay type: cell-based
Details: 120 h, 30 ppm, agar medium, 22° C., 5 days, read-out: inhibition of the development of the fungus

Compound | inhibition at 30 ppm [%]
COc1ccc(-c2nc(-c3ccc(C)cc3)ccc2C(=O)N2CCOCC2)cc1OC [Compound 384] | ≥ 80
COc1ccc(-c2c(C(=O)N3CCCCC3CO)sc3ccccc23)cc1OC (stereo not drawn) [Compound 157] | ≥ 80
COc1ccc(-c2cc(-c3ccc(C)cc3)ccc2C(=O)N(C)C)cc1OC [Compound 217] | ≥ 80
COc1ccc(-c2nc(C(C)(C)C)ccc2C(=O)N2CCOCC2)cc1OC [Compound 3110] | ≥ 80
COc1ccc(-c2nc(SCc3ccccc3)ncc2C(=O)N2CCOCC2)cc1OC [Compound 434] | ≥ 80
CCN(C)C(=O)c1ccc(-c2ccc(Cl)cc2)nc1-c1ccc(OC)c(OC)c1 [Compound 347] | ≥ 80
Cc1ccc(-c2ccc(C(=O)N3CCOCC3)c(-c3ccc4c(c3)OCO4)c2)cc1 [Compound 231] | ≥ 80
COc1ccc(-c2c(C(=O)N(C)CCO)sc3ccccc23)cc1OC [Compound 156] | ≥ 80
CCN(CC)C(=O)c1ccc(Br)cc1-c1ccc(OC)c(OC)c1 [Compound 205] | ≥ 80
COc1ccc(-c2ccc(C(=O)N3CCOCC3)c(-c3ccc(OC)c(OC)c3)n2)cc1 [Compound 389] | ≥ 80
COc1ccc(-c2c(C(=O)N(C)C)sc3ccccc23)cc1OC [Compound 155] | ≥ 80
C=C(C)c1ccc(C(=O)N2CCOCC2)c(-c2ccc(OC)c(OC)c2)c1 [Compound 236] | ≥ 80
O=C(c1ccc(-c2ccc(F)cc2)cc1-c1ccc2c(c1)OCO2)N1CCOCC1 [Compound 229] | ≥ 80
COc1ccc(-c2c(C(=O)N3CCOCC3)sc3ccc(-c4ccsc4)cc23)cc1OC [Compound 134] | ≥ 80
COc1ccc(-c2c(C(=O)N3CCOCC3)sc3c(Cl)cccc23)cc1OC [Compound 124] | ≥ 80
COc1ccc(-c2nc(Sc3ccc(F)cc3)ncc2C(=O)N2CCOCC2)cc1OC [Compound 449] | ≥ 80
CCN(C)C(=O)c1sc2ccc(F)cc2c1-c1ccc(OC)c(OC)c1 [Compound 167] | ≥ 80
COc1ccc(-c2nc(-c3ccc(Cl)cc3)ccc2C(=O)N(C)CCOC(C)=O)cc1OC [Compound 397] | ≥ 80
COc1ccc(-c2c(C(=O)N3CCOCC3)sc3ccccc23)cc1OC [Compound 118] | ≥ 80
CCN(C)C(=O)c1ccc(Br)cc1-c1ccc(OC)c(OC)c1 [Compound 206] | ≥ 80
COc1ccc(-c2c(C(=O)N3CCOCC3)cc(-c3ccccc3)n2C)cc1OC [Compound 621] | ≥ 80
COCCN(C)C(=O)c1c(-c2ccc(OC)c(OC)c2)cc(-c2ccccc2)nc1C [Compound 507] | ≥ 80
COc1ccc(-c2c(C(=O)N3CCCCC3)sc3ccccc23)cc1OC [Compound 153] | ≥ 80
COCCN(C)C(=O)c1ccc(Br)cc1-c1ccc(OC)c(OC)c1 [Compound 204] | ≥ 80

Compound | inhibition at 30 ppm [%]
COc1ccc(-c2nc(-c3ccc(Cl)cc3)ccc2C(=O)N2CCC(O)CC2)cc1OC [Compound 377] | ≥ 80
COc1ccc(-c2nc(-c3cccs3)ccc2C(=O)N2CCOCC2)cc1OC [Compound 3113] | ≥ 80
CCN(CC)C(=O)c1sc2ccccc2c1-c1ccc(OC)c(OC)c1 [Compound 107, 2-(N,N-Diethylcarboxamide)-3-(3,4-dimethoxyphenyl)benzothiophene] | ≥ 80
COc1ccc(-c2nc(Sc3ccc(Cl)cc3)ncc2C(=O)N2CCOCC2)cc1OC [Compound 436] | ≥ 80
CCN(CC)C(=O)c1ccc(-c2ccccc2)nc1-c1ccc(OC)c(OC)c1 [Compound 388] | ≥ 80
CCN(C)C(=O)c1sc2ccccc2c1-c1ccc(OC)c(OC)c1 [Compound 150] | ≥ 80
COc1ccc(-c2c(C(=O)N3CCOCC3)sc3c(-c4ccccc4)cccc23)cc1OC [Compound 126] | ≥ 80
COc1ccc(-c2c(C(=O)N3CCCC3)sc3ccccc23)cc1OC [Compound 154] | ≥ 80
COc1ccc(-c2c(C(=O)N3CCOCC3)sc3c(NC(C)=O)cccc23)cc1OC [Compound 132] | ≥ 80
COc1ccc(-c2nc(-c3ccc(Br)cc3)ncc2C(=O)N2CCOCC2)cc1OC [Compound 427] | ≥ 80
COc1ccc(-c2nc(-c3ccccc3)ccc2C(=O)N(C)C)cc1OC [Compound 370] | ≥ 80
COc1ccc(-c2nc(-c3cccc(C(F)(F)F)c3)ncc2C(=O)O)cc1OC [Compound 426] | ≥ 80
COc1ccc(-c2c(C(=O)N3CCOCC3)sc3c(N)cccc23)cc1OC [Compound 121] | ≥ 80
COc1ccc(-c2nc(-c3ccc(Cl)cc3)c(C)cc2C(=O)N2CCOCC2)cc1OC [Compound 367] | ≥ 80
COc1ccc(-c2nc(-c3ccc(Cl)cc3)ccc2C(=O)N2CCCC2)cc1OC [Compound 373] | ≥ 80
COc1ccc(-c2nc(-c3ccc(Cl)cc3)ncc2C(=O)N2CCOCC2)cc1OC [Compound 407, 2-(4-Chlorophenyl)-4-(3,4-dimethoxyphenyl)-5-morpholinocarbonylpyrimidine] | ≥ 80
CCN(CC)C(=O)c1cnc(-c2ccc(Br)cc2)nc1-c1ccc(OC)c(OC)c1 [Compound 430] | ≥ 80
COc1ccc(-c2nc(-c3ccc(C#N)cc3)ccc2C(=O)N2CCOCC2)cc1OC [Compound 382] | ≥ 80
C=C(C)c1ccc2sc(C(=O)N3CCOCC3)c(-c3ccc(OC)c(OC)c3)c2c1 [Compound 105, 2-(4-Morpholinocarbonyl)-5-(propen-2-yl)-3-(3,4-dimethoxyphenyl)benzothiophene] | ≥ 80
COc1ccc(-c2nc(-c3ccc(F)cc3)ccc2C(=O)N2CCOCC2)cc1OC [Compound 349] | ≥ 80
COc1ccc(-c2nc(Sc3cccc(Cl)c3)ncc2C(=O)N2CCOCC2)cc1OC [Compound 445] | ≥ 80
COc1ccc(-c2cc(-c3ccc(Cl)cc3)ccc2C(=O)N2CCOCC2)cc1OC [Compound 237] | ≥ 80
CCN(C)C(=O)c1ccc(-c2ccc(C)cc2)cc1-c1ccc(OC)c(OC)c1 [Compound 215] | ≥ 80
COc1ccc(-c2c(C(=O)N3CCOCC3)n(C)c3ccc([N+](=O)[O-])cc23)cc1OC [Compound 141] | ≥ 80

Compound | inhibition at 30 ppm [%]
COCCN(C)C(=O)c1ccc(-c2ccc(Cl)cc2)nc1-c1ccc(OC)c(OC)c1 [Compound 379] | ≥ 80
COc1ccc(-c2c(C(=O)N3CCOCC3)sc3c(C)cccc23)cc1OC [Compound 127] | ≥ 80
CCN(C)C(=O)c1ccc(-c2ccc(Br)cc2)nc1-c1ccc(OC)c(OC)c1 [Compound 390] | ≥ 80
COc1ccc(-c2c(C(=O)N3CCOCC3)sc3ccc(I)cc23)cc1OC [Compound 101, 2-(4-morpholinocarbonyl)-5-iodo-3-(3,4-dimethoxyphenyl)benzothiophene] | ≥ 80
COc1ccc(-c2nc(Sc3ccc(Br)cc3)ncc2C(=O)N2CCOCC2)cc1OC [Compound 447] | ≥ 80
CCN(CC)C(=O)c1ccc(-c2ccsc2)nc1-c1ccc(OC)c(OC)c1 [Compound 3119] | ≥ 80
COc1ccc(-c2c(C(=O)N3CCOCC3)sc3cccc(Cl)c23)cc1OC [Compound 128] | ≥ 80
CCN(CC)C(=O)c1cnc(-c2ccc(Cl)c(Cl)c2)nc1-c1ccc(OC)c(OC)c1 [Compound 420] | ≥ 80
C=C(C)c1ccc(C(=O)N(C)CC)c(-c2ccc(OC)c(OC)c2)c1 [Compound 212] | ≥ 80
COc1ccc(-c2c(C(=O)N3CCOCC3)oc3ccc([N+](=O)[O-])cc23)cc1OC [Compound 136] | ≥ 80
COc1ccc(-c2c(C(=O)N3CCOCC3)oc3ccccc23)cc1OC [Compound 137] | ≥ 80
COc1ccc(-c2ccc(C(=O)N3CCOCC3)c(-c3ccc(OC)c(OC)c3)c2)cc1OC [Compound 234] | ≥ 80
CCN(CC)C(=O)c1cnc(-c2cccc(C(F)(F)F)c2)nc1-c1ccc(OC)c(OC)c1 [Compound 429] | ≥ 80
COc1ccc(-c2nc(-c3ccc(Br)cc3)ccc2C(=O)N(C)CCOC(C)=O)cc1OC [Compound 366] | ≥ 80
COc1ccc(C2=C(C(=O)N3CCOCC3)C(O)c3ccccc32)cc1OC (stereo not drawn) [Compound 110, 1-(3,4-Dimethoxyphenyl)-2-morpholinocarbonyl-3-hydroxyindene] | ≥ 80
CCN(C)C(=O)c1cnc(-c2cccc(C(F)(F)F)c2)nc1-c1ccc(OC)c(OC)c1 [Compound 428] | ≥ 80
COc1ccc(-c2cc(-c3ccccc3)nc(C)c2C(=O)N2CCOCC2)cc1OC [Compound 505, N-[4-(3,4-dimethoxyphenyl)-2-methyl-6-phenylnicotinoyl]morpholine] | ≥ 80
COc1ccc(-c2cc(-c3ccc(C)cc3)ccc2C(=O)N2CCOCC2)cc1OC [Compound 203] | ≥ 80
COc1ccc2c(c1)CC(C(=O)N1CCOCC1)=C2c1ccc(OC)c(OC)c1 [Compound 111, 2-Morpholinocarbonyl-3-(3,,4-dimethoxyphenyl)-6-mehoxyindene] | ≥ 80
COc1ccc(-c2nc(Oc3ccc(C(F)(F)F)cc3)ncc2C(=O)N2CCOCC2)cc1OC [Compound 442] | ≥ 80
COc1ccc(C2=C(C(=O)N3CCOCC3)Cc3cc(OC)c(OC)cc32)cc1OC [Compound 112, 2-Morpholinocarbonyl-3-(3,4-dimethoxyphenyl)-5,6-methoxyindene] | ≥ 80
COc1ccc(-c2c(C(=O)N3CCOCC3)sc3ccc(Cl)cc23)cc1OC [Compound 113] | ≥ 80
CCN(C)C(=O)c1c(-c2ccc(OC)c(OC)c2)cc(-c2ccccc2)nc1C [Compound 506] | ≥ 80
COc1ccc(-c2c(C(=O)N3CCOCC3)sc3ccc([N+](=O)[O-])cc23)cc1OC [Compound 104, 2-(4-Morpholinocarbonyl)-5-nitro-3-(3,4-dimethoxyphenyl)benzothiophene] | ≥ 80
